# Test results reported in ChEMBL document CHEMBL4364281, “Design of wogonin-inspired selective cyclin-dependent kinase 9 (CDK9) inhibitors with potent in vitro and in vivo antitumor activity” (Eur J Med Chem, 2019).
# Experiments:
# CDK9/cyclin T1 = CDK9/cyclin T1 (Homo sapiens, UniProt P50750)
# [1] = Antiproliferative activity against human BGC803 cells assessed as reduction in cell viability after 72 hrs by MTT assay; assay type: functional, cell-based; details: BGC803, 72 h
# MCF7 = assay: Antiproliferative activity against human MCF7 cells assessed as reduction in cell viability after 72 hrs by MTT assay; assay type: functional, cell-based; details: MCF7, 72 h
# CCRF-CEM = assay: Antiproliferative activity against human CEM cells assessed as reduction in cell viability after 72 hrs by MTT assay; assay type: functional, cell-based
# MV4-11 [2] = assay: Induction of apoptosis in human MV4-11 cells assessed as increase in caspase-3 level after 24 hrs by Western blot analysis; assay type: functional, cell-based
# MV4-11 [3] = assay: Antitumor activity against human MV4-11 cells xenografted in BALB/c mouse assessed as tumour growth inhibition at 30 mg/kg, iv administered every other day for 21 days relative to control; assay type: functional; details: MV4-11, iv, 504 h, read-out: TGI
# HCT-116 = assay: cells; details: Homo sapiens, HCT-116, 72 h
# Description: Antiproliferative activity against human HCT116 cells assessed as reduction in cell viability after 72 hrs by MTT assay
# physchem [4] = details: methanesulfonic acid buffer, pH 4.5
# Description: Solubility of compound in methanesulfonic acid buffer at pH 4.5
# HL-60 = assay: Antiproliferative activity against human HL60 cells assessed as reduction in cell viability after 72 hrs by MTT assay; assay type: functional, cell-based; details: HL-60, 72 h
# [5] = biological target: Cyclin-dependent kinase 9 (Homo sapiens) (UniProt P50750); assay: Inhibition of CDK9 in human MV4-11 cells assessed as inhibition of RNA polymerase 2 phosphorylation at S2 residue after 4 hrs by Western blot analysis; assay type: cell-based
# Sequence of Cyclin-dependent kinase 9 (Homo sapiens) (P50750 whole entry): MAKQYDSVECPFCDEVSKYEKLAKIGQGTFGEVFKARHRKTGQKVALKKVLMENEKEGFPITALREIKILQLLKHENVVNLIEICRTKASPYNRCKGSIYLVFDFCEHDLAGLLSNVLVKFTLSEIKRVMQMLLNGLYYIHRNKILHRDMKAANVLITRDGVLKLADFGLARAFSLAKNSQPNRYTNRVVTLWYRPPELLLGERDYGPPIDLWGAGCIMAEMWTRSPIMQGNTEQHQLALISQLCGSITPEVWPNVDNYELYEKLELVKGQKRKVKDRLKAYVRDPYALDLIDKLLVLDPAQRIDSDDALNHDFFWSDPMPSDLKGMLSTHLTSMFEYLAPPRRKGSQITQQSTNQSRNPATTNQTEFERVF
# MV4-11 [6] = assay: Cell cycle arrest in human MV4-11 cells assessed as accumulation at G2 phase at 0.05 uM after 24 hrs propidium iodide staining based flow cytometry (reference value: 22.73%); assay type: functional
# MV4-11 [7] = assay: Cell cycle arrest in human MV4-11 cells assessed as accumulation at G2 phase at 1.25 uM after 24 hrs propidium iodide staining based flow cytometry (reference value: 22.73%); assay type: functional
# MV4-11 [8] = assay: Cell cycle arrest in human MV4-11 cells assessed as accumulation at G1 phase at 0.25 uM after 24 hrs after 24 hrs by propidium iodide staining based flow cytometry (reference value: 41.20%); assay type: functional
# physchem [9] = details: buffer, pH 7.4
# Description: Hydrophobicity, log D of compound at pH 7.4
# MV4-11 [10] = assay: Induction of apoptosis in human MV4-11 cells assessed as late apoptotic cells at 1.25 uM after 24 hrs by Annexin-V/propidium iodide staining based flow cytometric method (reference value: 0.07%); assay type: functional
# Sequence of CDK9/cyclin T1 (O60563 whole entry): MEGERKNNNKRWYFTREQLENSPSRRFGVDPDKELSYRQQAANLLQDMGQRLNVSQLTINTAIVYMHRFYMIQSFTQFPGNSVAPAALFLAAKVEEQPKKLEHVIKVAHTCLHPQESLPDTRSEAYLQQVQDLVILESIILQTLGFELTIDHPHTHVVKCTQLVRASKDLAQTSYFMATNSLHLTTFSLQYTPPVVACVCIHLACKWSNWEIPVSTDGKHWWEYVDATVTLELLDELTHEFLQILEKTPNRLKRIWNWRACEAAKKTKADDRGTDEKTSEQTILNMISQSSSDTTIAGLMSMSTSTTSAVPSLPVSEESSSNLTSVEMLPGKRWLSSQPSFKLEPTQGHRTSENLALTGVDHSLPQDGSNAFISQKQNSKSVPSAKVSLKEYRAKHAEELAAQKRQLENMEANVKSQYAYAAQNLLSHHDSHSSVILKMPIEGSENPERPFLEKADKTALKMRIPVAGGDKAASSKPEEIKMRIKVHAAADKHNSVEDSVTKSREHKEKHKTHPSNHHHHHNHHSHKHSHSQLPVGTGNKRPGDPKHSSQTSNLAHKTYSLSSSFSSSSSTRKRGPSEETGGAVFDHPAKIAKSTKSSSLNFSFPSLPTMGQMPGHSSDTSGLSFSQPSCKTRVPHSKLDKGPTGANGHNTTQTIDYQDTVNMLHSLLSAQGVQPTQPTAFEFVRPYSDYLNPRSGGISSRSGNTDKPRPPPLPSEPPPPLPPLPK
# Sequence of CDK9/cyclin T1 (P50750 whole entry): as the sequence (P50750 whole entry) above
smiles,measurement,setting,value
COc1cc(O)c2c(=O)cc(-c3ccc(N4CCN(C)CC4)cc3)oc2c1Oc1c(C)n[nH]c1C,IC50,CDK9/cyclin T1,19.9 nM
same,IC50,[1],3120 nM
same,IC50,MCF7,480 nM
same,IC50,CCRF-CEM,1240 nM
same,Activity,MV4-11 [2],Dose-dependent effect
same,inhibition in vivo at 30 mg/kg,MV4-11 [3],42.6%
same,IC50,HCT-116,390 nM
same,solubility,physchem [4],4540 µg/mL
same,IC50,HL-60,5210 nM
same,inhibition,[5],Dose-dependent effect
same,Activity,MV4-11 [6],17.82%
same,Activity,MV4-11 [7],9.01%
same,Activity,MV4-11 [8],55.77%
same,logD,physchem [9],2.01
same,Activity,MV4-11 [10],9.05%
